The numbers were not newly measured in EP0580641B1, “NEW THALIDOMIDE DERIVATIVES, METHOD OF MANUFACTURE AND USE THEREOF IN MEDICAMENTS” (Grünenthal GmbH, priority 1991, dated 1992), which cites them from elsewhere.

Each structure is given as a SMILES string.

For this data set the following is noted: cited from Arch. Pharm. 321, 371 (1988).

On to `O=C1CCC(N2C(=O)c3ccccc3C2=O)C(=O)N1` (stereo not shown) [Thalidomid, 3-Phthalimido-piperidin-2,6-dion], for which the Wasserlöslichkeit is given as 0,012 mg/ml.
